This note sets out measurements from ChEMBL document CHEMBL1817578, “2-({6-[(3R)-3-amino-3-methylpiperidine-1-yl]-1,3-dimethyl-2,4-dioxo-1,2,3,4-tetrahydro-5H-pyrrolo[3,2-d]pyrimidine-5-yl}methyl)-4-fluorobenzonitrile (DSR-12727): a potent, orally active dipeptidyl peptidase IV inhibitor without mechanism-based inactivation of CYP3A” (Bioorg Med Chem, 2011).

The target in data set [1] is T1, Prolyl endopeptidase FAP (Homo sapiens, UniProt Q12884).
T1 sequence (Q12884 whole entry): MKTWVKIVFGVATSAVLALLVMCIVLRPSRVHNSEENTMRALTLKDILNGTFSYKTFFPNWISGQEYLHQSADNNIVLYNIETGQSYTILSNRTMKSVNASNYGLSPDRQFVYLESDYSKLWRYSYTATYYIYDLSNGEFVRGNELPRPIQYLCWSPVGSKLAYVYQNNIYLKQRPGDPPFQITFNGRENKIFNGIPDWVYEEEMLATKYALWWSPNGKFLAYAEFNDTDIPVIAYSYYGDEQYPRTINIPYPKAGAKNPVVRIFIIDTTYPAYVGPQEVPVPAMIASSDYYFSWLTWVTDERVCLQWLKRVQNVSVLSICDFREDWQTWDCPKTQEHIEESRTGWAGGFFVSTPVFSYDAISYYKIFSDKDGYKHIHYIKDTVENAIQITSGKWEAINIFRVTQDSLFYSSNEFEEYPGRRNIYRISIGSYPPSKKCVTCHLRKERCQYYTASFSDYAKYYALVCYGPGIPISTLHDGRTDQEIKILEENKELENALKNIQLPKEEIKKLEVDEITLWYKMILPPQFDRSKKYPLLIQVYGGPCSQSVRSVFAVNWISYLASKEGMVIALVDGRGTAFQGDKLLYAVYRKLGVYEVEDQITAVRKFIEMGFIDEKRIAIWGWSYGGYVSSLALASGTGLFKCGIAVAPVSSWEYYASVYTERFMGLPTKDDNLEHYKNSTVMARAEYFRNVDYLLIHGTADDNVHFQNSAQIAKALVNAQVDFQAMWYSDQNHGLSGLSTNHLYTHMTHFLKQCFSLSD
Briefly: Inhibition of FAPalpha.

Data set [2] in a line: Clearance in monkey at 1 mg/kg, iv. The settings on record: rhesus monkey, in vivo. The data set is classed as ADME, organism-based, Macaca mulatta. Further details: dose 1 mg/kg, route intravenous.
Data set [3] in a line: Volume of distribution at steady state in dog at 1 mg/kg, iv. Type of data set: ADME, organism-based, Canis lupus familiaris. Also on record: dose 1 mg/kg, route intravenous. The settings on record: in vivo, read-out: Vdss.
For data set [4], the target named is Dipeptidyl peptidase 9 (Homo sapiens, UniProt Q86TI2). Kind of data set: Inhibition of DPP9.
Data set [5] in a line: Half life in rat at 3 mg/kg, po. The settings on record: in vivo. The data set is classed as ADME, organism-based. Also on record: dose 3 mg/kg, route oral.
The nature of data set [6]: Cmax in monkey at 3 mg/kg, po. The data set is classed as ADME, organism-based, Macaca mulatta. Further details: dose 3 mg/kg, route oral. The settings on record: rhesus monkey, in vivo.
In data set [7] the target is Dipeptidyl peptidase 2 (Homo sapiens, UniProt Q9UHL4). Briefly: Inhibition of DPP2.
The nature of data set [8]: Cmax in dog at 3 mg/kg, po. The settings on record: in vivo. Type of data set: ADME, organism-based, Canis lupus familiaris. Also on record: dose 3 mg/kg, route oral.

Sequence of Dipeptidyl peptidase 9 (Q86TI2 whole entry): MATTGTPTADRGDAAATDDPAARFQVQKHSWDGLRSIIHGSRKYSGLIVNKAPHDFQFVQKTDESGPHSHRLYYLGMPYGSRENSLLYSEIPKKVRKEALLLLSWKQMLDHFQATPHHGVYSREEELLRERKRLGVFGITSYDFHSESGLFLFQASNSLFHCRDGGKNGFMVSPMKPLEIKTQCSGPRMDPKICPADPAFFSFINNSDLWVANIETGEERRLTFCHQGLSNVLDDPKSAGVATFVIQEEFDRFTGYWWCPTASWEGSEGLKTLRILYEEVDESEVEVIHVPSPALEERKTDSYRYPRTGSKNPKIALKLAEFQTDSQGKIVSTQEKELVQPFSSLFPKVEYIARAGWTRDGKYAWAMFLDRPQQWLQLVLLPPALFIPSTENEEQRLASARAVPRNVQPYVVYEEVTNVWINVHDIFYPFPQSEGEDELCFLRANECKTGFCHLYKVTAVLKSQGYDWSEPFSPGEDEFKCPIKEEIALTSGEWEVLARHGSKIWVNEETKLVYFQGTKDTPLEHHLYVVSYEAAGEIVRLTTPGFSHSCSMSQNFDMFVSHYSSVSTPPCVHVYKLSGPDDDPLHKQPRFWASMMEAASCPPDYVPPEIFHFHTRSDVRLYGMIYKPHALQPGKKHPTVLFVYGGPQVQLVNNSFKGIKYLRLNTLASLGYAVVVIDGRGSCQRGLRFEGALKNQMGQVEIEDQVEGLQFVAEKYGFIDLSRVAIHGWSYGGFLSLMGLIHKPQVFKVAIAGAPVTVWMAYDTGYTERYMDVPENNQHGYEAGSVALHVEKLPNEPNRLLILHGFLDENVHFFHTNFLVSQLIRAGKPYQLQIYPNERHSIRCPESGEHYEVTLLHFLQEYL

Usually IC50 stands for the midpoint of a concentration-inhibition curve. The term clearance denotes the volume of plasma or blood freed of the substance per unit of time. What is called half-life is the time in which the quantity being followed falls by half. One may read the Cmax as the maximum level reached in the sampled fluid or tissue. Regarding `Cn1c(=O)c2c(cc(N3CCC[C@@](C)(N)C3)n2Cc2cc(F)ccc2C#N)n(C)c1=O`, the IC50 in data set [1], in data set [4] and in data set [7] was greater than 50 µM each time. Besides, the clearance in data set [2] is 38 mL/min/kg. Further, the Vd in data set [3] was 5.8 L/kg. The molecule also showed a half-life in data set [5] of 3.3 h. Also, the Cmax in data set [6] was 77 ng/mL; in data set [8], 245 ng/mL.
